According to ChEMBL document CHEMBL4304782, “Antioxidant, Anti-inflammatory, and Neuroprotective Effects of Novel Vinyl Sulfonate Compounds as Nrf2 Activator” (ACS Med Chem Lett, 2019):

Biological target: T1, Nuclear factor erythroid 2-related factor 2 (Homo sapiens, UniProt Q16236)
T1 sequence (Q16236 whole entry): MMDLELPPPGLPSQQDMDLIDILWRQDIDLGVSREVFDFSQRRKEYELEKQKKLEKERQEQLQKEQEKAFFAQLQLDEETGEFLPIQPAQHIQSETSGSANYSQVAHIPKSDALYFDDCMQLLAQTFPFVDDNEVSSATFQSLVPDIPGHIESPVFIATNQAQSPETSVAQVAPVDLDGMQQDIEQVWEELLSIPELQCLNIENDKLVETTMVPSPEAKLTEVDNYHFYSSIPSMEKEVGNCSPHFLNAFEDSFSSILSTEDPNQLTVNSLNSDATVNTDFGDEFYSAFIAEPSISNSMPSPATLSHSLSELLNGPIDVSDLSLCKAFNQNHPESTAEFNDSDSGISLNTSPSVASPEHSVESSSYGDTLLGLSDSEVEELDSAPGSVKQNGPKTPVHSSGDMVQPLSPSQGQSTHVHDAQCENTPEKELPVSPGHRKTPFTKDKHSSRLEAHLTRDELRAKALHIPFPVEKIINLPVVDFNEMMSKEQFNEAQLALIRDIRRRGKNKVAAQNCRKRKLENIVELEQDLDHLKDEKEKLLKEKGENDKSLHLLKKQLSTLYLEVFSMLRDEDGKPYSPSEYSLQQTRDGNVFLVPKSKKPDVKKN
Assay: Activation of ED-tagged Nrf2 in human U2OS cells co-expressing Keap1 assessed as induction of NRF2 translocation to nucleus after 6 hrs by beta-galactosidase based chemiluminescent assay
Format: cell-based

SMILES	EC50
COc1cccc(NS(=O)(=O)/C=C/c2ccccc2Cl)c1	> 10 µM
COc1ccccc1NS(=O)(=O)/C=C/c1ccccc1Cl	6.35 µM
COc1ccc(NS(=O)(=O)/C=C/c2ccccc2Cl)cc1	> 10 µM
O=S(=O)(/C=C/c1ccccc1)Nc1ccccc1	> 10 µM

Continued, values first:

EC50	SMILES
1.78 µM	COc1cccc(OS(=O)(=O)/C=C/c2ccc(Cl)cc2)c1
1.04 µM	O=S(=O)(/C=C/c1ccccc1)Oc1ccccc1
0.948 µM	COc1ccc(OS(=O)(=O)/C=C/c2cccc(Cl)c2)cc1
1.48 µM	COc1ccc(OS(=O)(=O)/C=C/c2ccccc2)cc1
